Data reported in publication PMC8222254, “Self-assembly of an anion receptor with metal-dependent kinase inhibition and potent in vitro anti-cancer properties” (Nature Communications, 2021).
pIC50: −log10 of the molar value. Values joined by “and” are separate entries in the source; they are usually repeats but may differ in a detail not shown here. Equal entries are not always repeated. Where two headings read alike, the source gives them in different places.

What was measured:
Assay type in all cases: cell-based, human
[1] = test system: ARPE-19; experiment: Quantification of cellular ATP levels (CellTiterGlo); details: for % ATP Activity (Average): ARPE-19 cells, average of runs, relative to 0 µM = 100
Method: (§1) ARPE-19 and HCT116 p53^+/+ cells were seeded in 96-well opaque plates at a density of 7500 cells/well. 24 h after seeding, cells were treated for 20 h with a range of concentrations of [[…]]^6+, [L2Zn3]^6+, [[…]]^6+, or vehicle control (2-fold serial dilution from 100-3.125 μM) before determining total cellular ATP content by quantification of luminescence (CellTiterGlo® assay, Promega). ATP levels were normalised relative to levels in vehicle control-treated cells.

[2] = test system: HCT116 p53+/+; experiment: as above; details: for ATP levels relative to vehicle control: 20h; for % ATP Activity (Average): HCT116 p53+/+ cells, average of runs, relative to 0 µM = 100
Method: as §1

[3] = test system: HCT116 p53+/+; experiment: Chemosensitivity, 96 h continuous exposure, MTT assay; details: for Selectivity index (ARPE19): IC50 ARPE-19 / IC50 HCT116 p53+/+; for SI (ARPE19): mean IC50 ARPE-19 / mean IC50 HCT116 p53+/+;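 on SI (NPI): adult human brain neural progenitor non-cancer cells from an epilepsy surgery patient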;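 on Selectivity Index using the NPI non-cancer cell line: adult human brain neural progenitor non-cancer cells from an epilepsy surgery patient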
Method in brief: (§2)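 Cells seeded at 2 × 10^3/well (GBM1 3 × 10^3/well) and left overnight at 37 °C, then exposed continuously for 96 h to a range of compound concentrations (final DMSO 0.2%). Viability read by MTT, absorbance at 540 nm; IC50 taken from dose-response curves as concentration reducing cell growth by 50%.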

[4] = test system: HCT116 p53-/-; experiment: as above; details: for Selectivity index (ARPE19): IC50 ARPE-19 / IC50 HCT116 p53-/-; for SI (ARPE19): mean IC50 ARPE-19 / mean IC50 HCT116 p53-/-;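 on SI (NPI): adult human brain neural progenitor non-cancer cells from an epilepsy surgery patient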;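 on Selectivity Index using the NPI non-cancer cell line: adult human brain neural progenitor non-cancer cells from an epilepsy surgery patient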
Method in brief: as §2

[5] = test system: A549; experiment: as above
Method in brief: as §2

[6] = test system: DLD-1; experiment: as above
Method in brief: as §2

[7] = HCT116 p53+/+, 96 h, MTT, individual run, read-out: IC50 values for each replicate
[8] = HCT116 p53+/+, 96 h, MTT, mean of at least 3 independent experiments, read-out: Mean IC50
[9] = HCT116 p53+/+, read-out: Mean IC50 values
[10] = HCT116 p53-/-, 96 h, MTT, individual run, read-out: IC50 values for each replicate
[11] = HCT116 p53-/-, 96 h, MTT, mean of at least 3 independent experiments, read-out: Mean IC50
[12] = HCT116 p53-/-, read-out: Mean IC50 values

Structure (SMILES): [Cu+2].[Cu+2].[Cu+2].c1ccc(-c2csc(NCCN(CCNc3nc(-c4ccccn4)cs3)CCNc3nc(-c4ccccn4)cs3)n2)nc1.c1ccc(-c2csc(NCCN(CCNc3nc(-c4ccccn4)cs3)CCNc3nc(-c4ccccn4)cs3)n2)nc1 [[L2Cu3]6+]
- % ATP Activity (Average) ([1]; 3.125 µM complex): 91.48%
- % ATP Activity (Average) ([1]; 6.25 µM complex): 92.26%
- % ATP Activity (Average) ([1]; 12.5 µM complex): 92.93%
- % ATP Activity (Average) ([1]; 25 µM complex): 95.14%
- % ATP Activity (Average) ([1]; 50 µM complex): 85.50%
- % ATP Activity (Average) ([1]; 100 µM complex): 56.08%
- ATP levels relative to vehicle control ([2]; HCT116, highest concentration of 100μM): < 50%
- % ATP Activity (Average) ([2]; 3.125 µM complex): 75.66%
- % ATP Activity (Average) ([2]; 6.25 µM complex): 75.32%
- % ATP Activity (Average) ([2]; 12.5 µM complex): 74.21%
- % ATP Activity (Average) ([2]; 25 µM complex): 71.91%
- % ATP Activity (Average) ([2]; 50 µM complex): 61.46%
- % ATP Activity (Average) ([2]; 100 µM complex): 38.46%
- pIC50 [3, 7]: 6.62 and 6.27 and 6.28 and 6.30 and 6.17
- pIC50 [3, 8]: 6.30
- pIC50 ([3]; HCT116 p53+/+, mean of replicates, read-out: Mean IC50): 6.30
- pIC50 [3, 9]: 6.30
- Selectivity index (ARPE19) [3]: 106.11 and 106.2
- Selectivity index (MCF10A) ([3]; IC50 MCF10A / IC50 HCT116 p53+/+): 97.30
- Selectivity Index using the NPI non-cancer cell line ([3]; IC50 NP1 / IC50 HCT116 p53+/+): 86.88
- SI (ARPE19) [3]: 106.11
- SI (MCF10A) ([3]; mean IC50 MCF10A / mean IC50 HCT116 p53+/+): 97.30
- SI (NPI) ([3]; mean IC50 NP1 / mean IC50 HCT116 p53+/+): 86.88
- Relative potency (+ anion to no anion), Ratio + anion:no anion ([3]; ratio of IC50, HCT116 p53+/+): 1
- Selectivity indices relative to ARPE-19, Ratio + anion:no anion ([3]; ratio of SI (ARPE-19), HCT116 p53+/+): 1
- Selectivity indices relative to MCF10A, Ratio + anion:no anion ([3]; ratio of SI (MCF 10A), HCT116 p53+/+): 1
- pIC50 [4, 10]: 6.62 and 7.05 and 6.72 and 7.06 and 7.17 and 6.81
- pIC50 [4, 11]: 6.86
- pIC50 ([4]; HCT116 p53-/-, mean of replicates, read-out: Mean IC50): 6.86
- pIC50 [4, 12]: 6.86
- Selectivity index (ARPE19) [4]: 384.16 and 384.82
- Selectivity index (MCF10A) ([4]; IC50 MCF10A / IC50 HCT116 p53-/-): 352.26
- Selectivity Index using the NPI non-cancer cell line ([4]; IC50 NP1 / IC50 HCT116 p53-/-): 314.53
- SI (ARPE19) [4]: 384.16
- SI (MCF10A) ([4]; mean IC50 MCF10A / mean IC50 HCT116 p53-/-): 352.26
- SI (NPI) ([4]; mean IC50 NP1 / mean IC50 HCT116 p53-/-): 314.53
- Relative potency (+ anion to no anion), Ratio + anion:no anion ([4]; ratio of IC50, HCT116 p53-/-): 1
- Selectivity indices relative to ARPE-19, Ratio + anion:no anion ([4]; ratio of SI (ARPE-19), HCT116 p53-/-): 1
- Selectivity indices relative to MCF10A, Ratio + anion:no anion ([4]; ratio of SI (MCF 10A), HCT116 p53-/-): 1
- pIC50 ([5]; A549, 96 h, MTT, individual run, read-out: IC50 values for each replicate): 6.59 and 6.72 and 6.60
- pIC50 ([5]; A549, 96 h, MTT, mean of at least 3 independent experiments, read-out: Mean IC50): 6.63
- pIC50 ([5]; A549, mean of replicates, read-out: Mean IC50): 6.63
- pIC50 ([5]; A549, read-out: Mean IC50 values): 6.63
- Selectivity index (ARPE19) ([5]; IC50 ARPE-19 / IC50 A549): 225.88
- Selectivity index (MCF10A) ([5]; IC50 MCF10A / IC50 A549): 207.12
- Selectivity Index using the NPI non-cancer cell line ([5]; IC50 NP1 / IC50 A549): 184.94
- SI (ARPE19) ([5]; mean IC50 ARPE-19 / mean IC50 A549): 225.88
- SI (MCF10A) ([5]; mean IC50 MCF10A / mean IC50 A549): 207.12
- SI (NPI) ([5]; mean IC50 NP1 / mean IC50 A549): 184.94
- Relative potency (+ anion to no anion), Ratio + anion:no anion ([5]; ratio of IC50, A549): 1
- Selectivity indices relative to ARPE-19, Ratio + anion:no anion ([5]; ratio of SI (ARPE-19), A549): 1
- Selectivity indices relative to MCF10A, Ratio + anion:no anion ([5]; ratio of SI (MCF 10A), A549): 1
- pIC50 ([6]; DLD-1, 96 h, MTT, mean of at least 3 independent experiments, read-out: Mean IC50): 6.88
- pIC50 ([6]; DLD-1, mean of replicates, read-out: Mean IC50): 6.88
- pIC50 ([6]; DLD-1, read-out: Mean IC50 values): 6.88
- Selectivity index (ARPE19) ([6]; IC50 ARPE-19 / IC50 DLD-1): 398.71
- Selectivity index (MCF10A) ([6]; IC50 MCF10A / IC50 DLD-1): 365.61
- Selectivity Index using the NPI non-cancer cell line ([6]; IC50 NP1 / IC50 DLD-1): 326.44
- SI (ARPE19) ([6]; mean IC50 ARPE-19 / mean IC50 DLD-1): 398.71
- SI (MCF10A) ([6]; mean IC50 MCF10A / mean IC50 DLD-1): 365.61
- SI (NPI) ([6]; mean IC50 NP1 / mean IC50 DLD-1): 326.44
- Relative potency (+ anion to no anion), Ratio + anion:no anion ([6]; ratio of IC50, DLD-1): 1
- Selectivity indices relative to ARPE-19, Ratio + anion:no anion ([6]; ratio of SI (ARPE-19), DLD-1): 1
- Selectivity indices relative to MCF10A, Ratio + anion:no anion ([6]; ratio of SI (MCF 10A), DLD-1): 1

Structure (SMILES): [Mn+2].[Mn+2].[Mn+2].c1ccc(-c2csc(NCCN(CCNc3nc(-c4ccccn4)cs3)CCNc3nc(-c4ccccn4)cs3)n2)nc1.c1ccc(-c2csc(NCCN(CCNc3nc(-c4ccccn4)cs3)CCNc3nc(-c4ccccn4)cs3)n2)nc1 [[L2Mn3]6+]
- ATP levels relative to vehicle control ([1]; ARPE19, 100μM, 20h): ~ 40%
- % ATP Activity (Average) ([1]; 3.125 µM complex): 82.98%
- % ATP Activity (Average) ([1]; 6.25 µM complex): 75.81%
- % ATP Activity (Average) ([1]; 12.5 µM complex): 71.57%
- % ATP Activity (Average) ([1]; 25 µM complex): 63.68%
- % ATP Activity (Average) ([1]; 50 µM complex): 53.48%
- % ATP Activity (Average) ([1]; 100 µM complex): 40.46%
- % ATP Activity (Average) ([2]; 3.125 µM complex): 52.15%
- % ATP Activity (Average) ([2]; 6.25 µM complex): 40.82%
- % ATP Activity (Average) ([2]; 12.5 µM complex): 38.17%
- % ATP Activity (Average) ([2]; 25 µM complex): 35.09%
- % ATP Activity (Average) ([2]; 50 µM complex): 31.21%
- % ATP Activity (Average) ([2]; 100 µM complex): 28.58%
- ATP levels relative to vehicle control ([2]; HCT116 p53+/+, 6.25μM): < 50%
- pIC50 [3, 7]: 5.75 and 6.28 and 5.85 and 5.84
- pIC50 [3, 8]: 5.88
- pIC50 [3, 9]: 5.88
- Selectivity index (ARPE19) [3]: 2.17
- preferential selectivity towards cancer cells ([3]; cancer cells vs non-cancer cells (Fig. 5f)): ~ 2 fold
- SI (ARPE19) [3]: 2.173
- pIC50 [4, 10]: 5.81 and 6.11 and 5.87 and 5.89
- pIC50 [4, 11]: 5.90
- pIC50 [4, 12]: 5.90
- Selectivity index (ARPE19) [4]: 2.30
- SI (ARPE19) [4]: 2.295
